In brackets after ≈: the same amount, converted by molar mass. Where two headings read alike, the source gives them in different places.
Columns and labels:
Type in all cases: cell-based
[1] = test system: Staphylococcus aureus 209-P; test: In vitro antibacterial activity, Staphylococcus aureus 209-P (Tables 2-6)
Experimental: (§1) Typical compounds out of the compounds described in Examples were classified into some groups. On each compound group, in vitro antibacterial activities were tested by a method known per se in the art.

[2] = test system: Escherichia coli NIHJ; test: In vitro antibacterial activity, Escherichia coli NIHJ (Tables 2-6)
Experimental: as §1

[3] = test system: Klebsiella pneumoniae EK-6; test: In vitro antibacterial activity, Klebsiella pneumoniae EK-6 (Tables 2-6)
Experimental: as §1

[4] = test system: Serratia marcescens ES-75; test: In vitro antibacterial activity, Serratia marcescens ES-75 (Tables 2-6)
Experimental: as §1

[5] = test system: Morganella morganii EP-14; test: In vitro antibacterial activity, Morganella morganii EP-14 (Tables 2-6)
Experimental: as §1

[6] = Staphylococcus aureus, 209P, Staphylococcus aureus 209-P, read-out: MIC
[7] = Klebsiella pneumoniae, EK6, Klebsiella pneumoniae EK-6, read-out: MIC
[8] = Escherichia coli, Escherichia coli NIHJ, read-out: MIC
[9] = Serratia marcescens, ES75, Serratia marcescens ES-75, read-out: MIC
[10] = Morganella morganii, EP14, Morganella morganii EP-14, read-out: MIC

SMILES | MIC [1, 6] [µg/mL] | MIC [3, 7] [µg/mL] | MIC [2, 8] [µg/mL] | MIC ([1]; Staphylococcus aureus, 209P) [µg/mL] | MIC ([2]; Escherichia coli) [µg/mL] | MIC ([3]; Klebsiella pneumoniae, EK6) [µg/mL] | MIC ([4]; Serratia marcescens, ES75) [µg/mL] | MIC ([5]; Morganella morganii, EP14) [µg/mL] | other results
CCNC(=O)OC/C=C\C1=C(C(=O)[O-])N2C(=O)C(NC(=O)/C(=N\O)c3csc(N)n3)[C@H]2SC1.[Na+] (stereo partly shown) [Example 42, Sodium 7-[(Z)-2-(2-aminothiazol-4-yl)-2-hydroxyiminoacetamido]-3-[(Z)-3-(N-ethylcarbamoyloxy)-1-propenyl]-3-cephem-4-carboxylate] | – | – | – | 0.1 | 0.05 | 0.05 | 0.05 | ≤ 0.006 | –
CN(C)C(=O)OC/C=C\C1=C(C(=O)[O-])N2C(=O)C(NC(=O)/C(=N\O)c3csc(N)n3)[C@H]2SC1.[Na+] (stereo partly shown) [Example 30, Sodium 7-[(Z)-2-(2-aminothiazol-4-yl)-2-hydroxyiminoacetamido]-3-[(Z)-3-(N,N-dimethylcarbamoyloxy)-1-propenyl]-3-cephem-4-carboxylate] | – | – | – | 0.2 | 0.2 | 0.2 | 0.05 | 0.05 | –
CO/N=C(\C(=O)N[C@@H]1C(=O)N2C(C(=O)O)=C(/C=C/c3c(Cl)ncnc3Cl)CS[C@H]12)c1csc(N)n1 [Example 29 (E)] | – | – | – | – | – | – | – | – | MIC [4, 9]: 6.25 µg/mL (≈ 11.2 µM); MIC [5, 10]: 0.4 µg/mL (≈ 0.719 µM)
CO/N=C(\C(=O)N[C@@H]1C(=O)N2C(C(=O)O)=C(/C=C/C3CCCO3)CS[C@H]12)c1csc(N)n1 (single isomer, unassigned) [48 B] | – | – | – | – | – | – | – | – | MIC ([1]; Staphylococcus aureus 209-P): 0.8 µg/mL (≈ 1.67 µM); MIC ([2]; Escherichia coli NIHJ): 0.8 µg/mL (≈ 1.67 µM); MIC ([3]; Klebsiella pneumoniae EK-6): 0.4 µg/mL (≈ 0.834 µM); MIC ([4]; Serratia marcescens ES-75): 0.1 µg/mL (≈ 0.209 µM); MIC ([5]; Morganella morganii EP-14): 0.2 µg/mL (≈ 0.417 µM)
Nc1nc(/C(=N/O)C(=O)N[C@@H]2C(=O)N3C(C(=O)O)=C(/C=C/C4CCCO4)CS[C@H]23)cs1 (single isomer, unassigned) [50 B] | – | – | – | – | – | – | – | – | MIC ([1]; Staphylococcus aureus 209-P): 0.1 µg/mL (≈ 0.215 µM); MIC ([2]; Escherichia coli NIHJ): 0.8 µg/mL (≈ 1.72 µM); MIC ([3]; Klebsiella pneumoniae EK-6): 0.4 µg/mL (≈ 0.859 µM); MIC ([4]; Serratia marcescens ES-75): 0.4 µg/mL (≈ 0.859 µM); MIC ([5]; Morganella morganii EP-14): 0.2 µg/mL (≈ 0.43 µM)
Nc1nc(/C(=N/O)C(=O)NC2C(=O)N3C(C(=O)[O-])=C(/C=C\COC(=O)NCCCl)CS[C@H]23)cs1.[Na+] (stereo partly shown) [Example 44, Sodium 7-[(Z)-2-(2-aminothiazol-4-yl)-2-hydroxyiminoacetamido]-3-[(Z)-3-(N-(2-chloroethyl)carbamoyloxy)-1-propenyl]-3-cephem-4-carboxylate] | – | – | – | 0.1 | 0.05 | 0.05 | 0.05 | ≤ 0.006 | –
CO/N=C(\C(=O)N[C@@H]1C(=O)N2C(C(=O)[O-])=C(/C=C\C3CCCO3)CS[C@H]12)c1csc(N)n1.[Na+] (stereo partly drawn) [Example 49, Sodium 7β-[(Z)-2-aminothiazol-4-yl-2-methoxyiminoacetamido]-3-[(Z)-2-(tetrahydrofuran-2-yl)vinyl]-3-cephem-4-carboxylate] | – | – | – | 1.56 | 0.8 | 0.4 | 0.05 | 0.1 | –
CO/N=C(\C(=O)N[C@@H]1C(=O)N2C(C(=O)[O-])=C(/C=C/C3CCC(=O)O3)CS[C@H]12)c1csc(N)n1.[Na+] (stereo partly drawn) [Example 52, Sodium 7β-[(Z)-2-aminothiazol-4-yl-2-methoxyiminoacetamido]-3-[(E)-2-(5-oxotetrahydrofuran 2-yl)vinyl]-3-cephem-4-carboxylate] | – | – | – | 0.4 | 0.1 | 0.025 | 0.012 | ≤ 0.006 | –
CO/N=C(\C(=O)N[C@@H]1C(=O)N2C(C(=O)[O-])=C(/C=C/c3cnccn3)CS[C@H]12)c1csc(N)n1.[Na+] [Example 27, Sodium 7β-[(Z)-2-(2-aminothiazol-4-yl)-2-(methoxyimino)acetamido]-3-[(E)-2-(pyrazin-2-yl)vinyl]-3-cephem-4-carboxylate] | – | – | – | 0.8 | 0.2 | 0.1 | 0.05 | 0.05 | –
COc1ncncc1/C=C\C1=C(C(=O)[O-])N2C(=O)[C@@H](NC(=O)/C(=N\O)c3csc(N)n3)[C@H]2SC1.[Na+] [Example 25, Sodium 7β-[(Z)-2-(2-aminothiazol-4-yl)-2-(hydroxyimino)acetamido]-3-[(Z)-2-(4-methoxypyrimidin-5-yl)vinyl]-3-cephem-4-carboxylate] | – | – | – | 0.2 | 0.8 | 0.4 | 0.2 | 0.1 | –
CO/N=C(\C(=O)N[C@@H]1C(=O)N2C(C(=O)[O-])=C(/C=C\c3c(Cl)ncnc3Cl)CS[C@H]12)c1csc(N)n1.[Na+] [Example 29 (Z), Sodium 7β-[(Z)-2-(2-aminothiazol-4-yl)-2-(methoxyimino)acetamido]-3-[(Z)-2-(4,6-dichloropyrimidin-5-yl)vinyl]-3-cephem-4-carboxylate] | – | – | – | 1.56 | 3.13 | 7.56 | 3.13 | 0.8 | –
CNC(=O)OC/C=C\C1=C(C(=O)[O-])N2C(=O)C(NC(=O)/C(=N\O)c3csc(N)n3)[C@H]2SC1.[Na+] (stereo partly shown) [Example 33, Sodium 7-[(Z)-2-(2-aminothiazol-4-yl)-2-hydroxyiminoacetamido]-3-[(Z)-3-(N-methylcarbamoyloxy)-1-propenyl]-3-cephem-4-carboxylate] | – | – | – | 0.1 | 0.025 | 0.012 | 0.025 | ≤ 0.006 | –
CC(C)NC(=O)OC/C=C\C1=C(C(=O)[O-])N2C(=O)C(NC(=O)/C(=N\O)c3csc(N)n3)[C@H]2SC1.[Na+] (stereo partly shown) [Example 40, Sodium 7-[(Z)-2-(2-aminothiazol-4-yl)-2-hydroxyiminoacetamido]-3-[(Z)-3-(N-isopropylcarbamoyloxy)-1-propenyl]-3-cephem-4-carboxylate] | – | – | – | 0.2 | 0.1 | 0.1 | 0.05 | 0.025 | –
Nc1nc(/C(=N/O)C(=O)N[C@@H]2C(=O)N3C(C(=O)[O-])=C(/C=C\c4cncnc4)CS[C@H]23)cs1.[Na+] [Example 16, Sodium 7β-[(Z)-2-(2-aminothiazol-4-yl)-2-(hydroxyimino)acetamido]-3-[(Z)-2 (pyrimidin-5-yl)vinyl]-3-cephem-4-carboxylate] | – | – | – | 0.2 | 0.1 | 0.05 | > 100 | 0.012 | –
Nc1nc(/C(=N/O)C(=O)N[C@@H]2C(=O)N3C(C(=O)[O-])=C(/C=C/c4cncnc4N)CS[C@H]23)cs1.[Na+] [Example 23, Sodium 7β[(Z)-2-(2-aminothiazol-4-yl)-2-(hydroxyimino)acetamido]-3-[(E)-2-(4-aminopyrimidin-5-yl)vinyl]-3-cephem-4-carboxylate] | – | – | – | 0.2 | 0.4 | 0.025 | > 100 | 0.012 | –

Further lines, with some results ahead:

MIC [1, 6] [µg/mL] | MIC [3, 7] [µg/mL] | MIC [2, 8] [µg/mL] | SMILES | MIC ([1]; Staphylococcus aureus, 209P) [µg/mL] | MIC ([2]; Escherichia coli) [µg/mL] | MIC ([3]; Klebsiella pneumoniae, EK6) [µg/mL] | MIC ([4]; Serratia marcescens, ES75) [µg/mL] | MIC ([5]; Morganella morganii, EP14) [µg/mL] | other results
0.1 (≈ 0.215 µM) | 0.2 (≈ 0.43 µM) | – | Nc1nc(/C(=N/O)C(=O)N[C@@H]2C(=O)N3C(C(=O)O)=C(/C=C/C4CCCO4)CS[C@H]23)cs1 (single isomer, unassigned) [50 A] | – | – | – | – | – | MIC ([2]; Escherichia coli NIHJ): 0.2 µg/mL (≈ 0.43 µM); MIC ([4]; Serratia marcescens ES-75): 0.1 µg/mL (≈ 0.215 µM); MIC ([5]; Morganella morganii EP-14): 0.05 µg/mL (≈ 0.107 µM)
0.8 (≈ 1.61 µM) | 0.05 (≈ 0.101 µM) | 0.2 (≈ 0.403 µM) | CNC(=O)OC/C=C\C1=C(C(=O)O)N2C(=O)C(NC(=O)/C(=N\OC)c3csc(N)n3)C2SC1 (stereo not shown) [Example 38] | – | – | – | – | – | MIC [4, 9]: 0.05 µg/mL (≈ 0.101 µM); MIC [5, 10]: 0.012 µg/mL (≈ 0.0242 µM)
0.1 (≈ 0.165 µM) | 0.025 (≈ 0.0411 µM) | 0.025 (≈ 0.0411 µM) | CO/N=C(\C(=O)N[C@@H]1C(=O)N2C(C(=O)OCOC(=O)C(C)(C)C)=C(/C=C/C3CCC(=O)O3)CS[C@H]12)c1csc(N)n1 (stereo partly drawn) [Example 53, Pivaloyloxymethyl 7β-[(Z)-2-aminothiazol-4-yl-2-methoxyiminoacetamido]-3-[(E)-2-(5 oxotetrahydrofuran-2-yl)vinyl]-3-cephem-4-carboxylate] | – | – | – | – | – | MIC [4, 9]: 0.05 µg/mL (≈ 0.0823 µM); MIC [5, 10]: 0.025 µg/mL (≈ 0.0411 µM)
0.2 | 0.1 | 0.2 | Nc1nc(/C(=N/O)C(=O)NC2C(=O)N3C(C(=O)O)=C(/C=C\COC(=O)N4CCOCC4)CSC23)cs1 (stereo not shown) [Example 32, Sodium 7-[(Z)-2-(2-aminothiazol-4-yl)-2-hydroxyiminoacetamido]-3-[(Z)-3-(1-morphorinylcarbonyloxy)-1-propenyl]-3-cephem-4-carboxylate] | – | – | – | – | – | –
0.8 (≈ 1.64 µM) | 0.2 (≈ 0.41 µM) | 0.4 (≈ 0.82 µM) | CO/N=C(\C(=O)N[C@@H]1C(=O)N2C(C(=O)O)=C(/C=C\c3cncnc3)CS[C@H]12)c1csc(N)n1 [Example 14] | – | – | – | – | – | MIC [4, 9]: 0.8 µg/mL (≈ 1.64 µM); MIC [5, 10]: 0.05 µg/mL (≈ 0.103 µM)
0.1 (≈ 0.182 µM) | 0.2 (≈ 0.364 µM) | 0.4 (≈ 0.728 µM) | CC(C)(C)C(=O)OCOC(=O)C1=C(/C=C\C2CC2)CS[C@@H]2[C@H](NC(=O)/C(=N\O)c3csc(N)n3)C(=O)N12 [Example 58, Pivaloyloxymethyl 7-62-[(Z)-2-(2-aminothiazol-4-yl)-2-hydroxyiminoacetamido]-3-[(Z)-cyclopropylvinyl]-3-cephem-4-carboxylate] | – | – | – | – | – | MIC [4, 9]: 0.8 µg/mL (≈ 1.46 µM); MIC [5, 10]: 0.1 µg/mL (≈ 0.182 µM)
0.2 (≈ 0.41 µM) | 0.1 (≈ 0.205 µM) | 0.2 (≈ 0.41 µM) | Cc1ncc(/C=C\C2=C(C(=O)O)N3C(=O)[C@@H](NC(=O)/C(=N\O)c4csc(N)n4)[C@H]3SC2)cn1 [Example 21] | – | – | – | – | – | MIC [4, 9]: 0.2 µg/mL (≈ 0.41 µM); MIC [5, 10]: 0.025 µg/mL (≈ 0.0513 µM)
0.2 | 0.05 | 0.1 | C=CCNC(=O)OC/C=C\C1=C(C(=O)O)N2C(=O)C(NC(=O)/C(=N\O)c3csc(N)n3)C2SC1 (stereo not shown) [Example 46, Sodium 7-[(Z)-2-(2-aminothiazol-4-yl)-2-hydroxyiminoacetamido]-3-[(Z)-30(N-allylcarbamoyloxy)-1-propenyl] -3-cephem-4-carboxylate] | – | – | – | – | – | MIC [4, 9]: 0.05 µg/mL; MIC [5, 10]: 0.012 µg/mL
0.4 (≈ 0.834 µM) | 0.2 (≈ 0.417 µM) | 0.4 (≈ 0.834 µM) | CO/N=C(\C(=O)N[C@@H]1C(=O)N2C(C(=O)O)=C(/C=C/C3CCCO3)CS[C@H]12)c1csc(N)n1 (single isomer, unassigned) [48 A] | – | – | – | – | – | MIC ([4]; Serratia marcescens ES-75): 0.025 µg/mL (≈ 0.0521 µM); MIC ([5]; Morganella morganii EP-14): 0.025 µg/mL (≈ 0.0521 µM)
